Legend:
[1] = species on record: Homo sapiens; test: Compound was tested for Leukotriene B4-mediated Up-regulation of human neutrophil CD11b/CD18; type: functional
[2] = LTB4 receptor antagonist activity was determined by inhibition of specific binding of [3H]LTB4 in guinea pig lung membranes
[3] = molecular target: Leukotriene B4 receptor 1 (Homo sapiens, UniProt Q15722); test: LTB4 receptor antagonist activity was determined by inhibition of specific binding of [3H]LTB4 in human neutrophil
Leukotriene B4 receptor 1, sequence (Q15722 whole entry): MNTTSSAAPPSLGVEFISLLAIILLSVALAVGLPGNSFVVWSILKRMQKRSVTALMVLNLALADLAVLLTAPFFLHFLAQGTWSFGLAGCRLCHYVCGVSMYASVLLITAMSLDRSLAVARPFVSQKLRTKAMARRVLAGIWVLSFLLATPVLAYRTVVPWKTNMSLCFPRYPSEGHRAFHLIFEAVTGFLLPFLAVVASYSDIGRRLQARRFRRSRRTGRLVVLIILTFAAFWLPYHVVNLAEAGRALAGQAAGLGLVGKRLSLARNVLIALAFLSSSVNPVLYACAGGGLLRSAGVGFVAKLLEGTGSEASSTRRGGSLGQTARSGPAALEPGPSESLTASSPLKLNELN

Row | SMILES | IC50 [1] [nM] | Ki [2] [nM] | Ki [3] [nM]
1 | CCc1cc(-c2ccc(F)cc2)c(O)cc1OCCCOc1cccc(Oc2ccc(C(=O)O)cc2)c1CCC(=O)O | 2.6 |  | 
2 | CCc1cc(-c2ccc(F)cc2)c(O)cc1OCCCOc1ccc2c(=O)c3cc(C(=O)O)ccc3oc2c1CCC(=O)O |  | 0.04 | 
3 | CCc1cc(-c2ccc(F)cc2)c(O)cc1OCCCOc1cc(Oc2ccc(C(=O)O)cc2)ccc1CCC(=O)O | 1800 |  | 39
4 | CCc1cc(-c2ccc(F)cc2)c(O)cc1OCCCOc1ccc(C#CCCC(=O)O)cc1CCC(=O)O | 4.7 |  | 

Reference: ChEMBL document CHEMBL1150505 (Bioorg Med Chem Lett, 1994)
